Experimental data published in patent US20070010458A1, “Drugs for the arthritis treatment” (priority 2002, published 2007).

Tests used:
[1] = tested on: TGFβ1 production in cellular chondrocyte cultures; assay: Stimulation of TGFβ1 production in chondrocyte cultures (CCL-64 growth inhibition bioassay of conditioned medium); type: cell-based; details: calf chondrocyte primary cultures, compound 10^−5 M, 24 hours; untreated control = 100
Experimental: The primary cultures have been kept in a DMEM culture medium (Dulbecco's modified Eagle medium) (high glucose) containing bovine fetal serum (10% vol.) and antibiotics at 37° C. and in air/CO2 atmosphere (95%/5% vol.) until reaching the culture confluence. A cell sample is kept as a control and not treated with the tested compounds.
At the end the cells have been washed 3 times with a medium free from serum and added with BSA (bovine serum albumin, 200 μg/ml) for 5, 30 and 60 minutes respectively and then incubated in a medium devoid of serum (1 ml) for further 6 hours. The conditioned medium has been collected, centrifuged and kept at −70° C. until the use.
Before the experiment, 0.5 ml of cellular culture supernatant have been acidified with HCl (0.1 ml, 1 N) and incubated at room temperature for 10 min, then neutralized with NaOH/HEPES (0.1 ml NaOH 1.2N/0.5 M).
CCL-64 cellular cultures lines in a proliferative state have been prepared as described in Jennings J. C., J. Cell. Physiol.
At the twentieth hour ^3H-timidine (0.5 μCi/ml), a cellular proliferation marker, which is incorporated in the DNA of the new cells has been added to the cultures. The cultures have then been incubated for 4 hours.
At the end the cells have been cold fixed (5° C.) with trichloroacetic acid 5% v/v, washed with the same solution and dissolved in NaOH (0.1 N). […] From the amount of incorporated timidine it is shown the amount of TGF-β1. The data reported in Table 1 are expressed in percentage of TGFβ1 produced in the samples treated with the tested compounds, compared with the untreated control.

[2] = tested on: IL-6 release in human monocytes; assay: IL-6 release in human monocytes (ex-vivo study after oral subacute treatment); details: healthy subjects, 100 mg twice a day oral for seven days; monocytes 4 hours after last treatment, 10 μg/ml endotoxin 24 hours, ELISA; placebo = 100
Experimental: Twenty-four healthy subjects of both sexes were enrolled and randomised into three groups of 8 subjects each. Each group was administered as it follows: • placebo: vehicle (0.5% aqueous suspension of carboxymethyl cellulose); • flurbiprofen: 100 mg twice a day; • NO-flurbiprofen: 100 mg twice a day; the compound was prepared as described in example F1. The treatment lasted seven consecutive days (oral subacute treatment).
Monocytes from whole blood samples obtained before and 4 hours after the last treatment were prepared. Monocytes were extracted by positive selection using paramagnetic beads loaded with anti-CD11 antibody. Cells were then incubated with 10 μg/ml endotoxin for 24 hours, and IL-6 released in cell supernatant measured by ELISA assay.
Results are given as % in the confront of IL-6 release obtained in the placebo group.

[3] = tested on: IL-6 release in mouse spleen lymphocytes; assay: IL-6 release in mouse spleen lymphocytes (in vitro, ELISA); type: cell-based; details: 10 μg/ml endotoxin, compound 50 μM, 24 hours, placebo = 100
Experimental: (§1) Spleen lymphocytes were prepared as it follows. Mice were killed by an overdose of ether, and spleens were collected and maintained in a sterile RPMI medium (Sigma-Aldrich) containing 0.5% (vol/vol) L-glutamine and 0.5% (vol/vol) sterile endotoxin-free fetal calf serum (FCS). The spleens were opened and the content (whole cells) collected and diluted with RPMI.
(§2) After repeated washings, cells were suspended in 10 ml of RPMI containing 1% (vol/vol) streptomycin and 1% (vol/vol) penicillin. The suspension was then incubated at 37° C. for 24 hours, in an O2/CO2 atmosphere (95%/5% v/v). Monocytes were eliminated by adhesion, and lysis of red cells was obtained by suspension in a solution 0.15 mol/liter NH4Cl and 1 mmol/liter KHCO3. The resulting lymphocytes were resuspended in RPMI-FCS, incubated for 30 minutes at 37° C. with anti-FAS, anti-FASL, or anti-IL2 receptor monoclonal antibodies, and then washed twice with RPMI-FCS. Cells were then incubated with the FITC-conjugated secondary antibody for 30 mins at 4° C., washed twice, and resuspended in PBS/formaldehyde (0.5%). Control samples were treated with the FITC-conjugated secondary antibody only. Stained cells were analysed on a flow cytofluorimeter. Cells were gated using forward vs side scatter to exclude dead cells and debris.
(§3) Cells were transferred in plate and then 10 μg/ml endotoxin and each of the following compounds at a concentration of 50 μM added: • Placebo (no compound added); • Flurbiprofen; • NO-Flurbiprofen; the compound was prepared as described in ex. F1, above; • Indomethacin; • NO-indomethacin; the compound was prepared as described in the example on page 45 of WO 98/09948; • then it was incubated for 24 hours • IL-6 and TGF-β released in cell supernatant was measured by ELISA assay, taking as 100% release that of placebo group.

[4] = tested on: TGF-β release in mouse spleen lymphocytes; assay: TGF-β release in mouse spleen lymphocytes (in vitro, ELISA); type: cell-based; details: 10 μg/ml endotoxin, compound 50 μM, 24 hours, placebo = 100
Experimental: as §1, §2, §3

human chondrocytes = assay: Cell proliferation of TNFα-treated human chondrocytes ([3H]-thymidine incorporation); type: cell-based; details: TNFα 80 ng/ml, compound 100 μM, 24 hours, control without TNFα = 100, vehicle + TNFα = 50
Experimental: (§4) Human chondrocytes were isolated by collagenase digestion from knee cartilage collected from patients undergoing knee replacement surgery. Only primary culture was used to avoid phenotype change of human chondrocytes. TNFα (80 ng/ml) was added to all but control cells. Test compounds were dissolved at a concentration 0.02% (w/v) in DMSO (vehicle).
(§5) The test compounds were incubated with cells at a 100 μM concentration for 24 hours.
Cell proliferation was determined by measuring [^3H]-thymidine incorporated into newly synthesized DNA. Cell viability was assessed by MTS assay kit.

[5] = tested on: proteoglycan synthesis in human chondrocytes; assay: Proteoglycan synthesis in TNFα-treated human chondrocytes ([35S]-sulfate incorporation); type: cell-based; details: TNFα 80 ng/ml, compound 100 μM, 24 hours, control without TNFα = 100, vehicle + TNFα = 22
Experimental: as §4, §5
Proteoglycan synthesis was determined by [^35S]-sulfate incorporation. Cells and supernatant were extracted with 4M guanidinium chloride and purified by Sephadex colums chromatography. The amount of [^35S]-sulfate was measured by liquid scintillation counter. Results were normalized by the amount of Dna in the sample and expressed as CPM/μg DNA (CPM=count per minute).

type II collagen mRNA = assay: Type II collagen mRNA steady-state levels in human articular chondrocytes; type: cell-based; details: human articular chondrocytes in hypoxia (5% v/v O2), with or without IL-1β, compound 10^−5M, 48 h
Experimental: The steady-state levels of mRNA for type II collagen and TGF-β type II receptor (TβRII) was evaluated in human articular chondrocytes (HAC), cultured in hypoxia (5% v/v O2). The cells were treated or not with interleukin-1β (IL-1β) an agent favouring OA pathology, and NO-NSAIDs, or the corresponding NSAIDs at 10^−5M for 48 h.

[6] = Hepatic tolerability in rats (plasma AST, ALT, bilirubin); type: in vivo; details: i.p., NO-paracetamol 1.4 g/Kg or paracetamol 1.16 g/Kg, plasma 6 hours after administration, % of control group (100%)
Experimental: Groups of No. 10 rats have been treated i.p. with NO-paracetamol (1.4 g/Kg i.p.) or with paracetamol (1.16 g/Kg) or with the carrier (0.9% w/v NaCl containing 20% v/v di tween-20) (control group).
After 6 hours from the administration, the animals have been sacrificed, the blood has been collected and the plasma analyzed to determine the aspartate aminotransferase (AST) and alanine aminotransferase (ALT) and bilirubin concentrations. The results are reported in Table 2 and have been expressed in pecentage with respect to the values obtained in the control group (100%).

SMILES	% of produced TGFβ1 [1] [%]	IL-6 release % in the confront of placebo [3] [%]	TGF-β release % in the confront of placebo [4] [%]	Proteoglycan synthesis % in the confront of control [5] [%]	further results
CC(=O)Oc1ccccc1C(=O)O [Aspirin]	150	–	–	–	–
CC(C(=O)O)c1ccc(-c2ccccc2)c(F)c1 (stereo not drawn) [Flurbiprofen]	120	100	115	26	IL-6 release % in the confront of placebo [2]: 100%; Cell proliferation % in the confront of control (human chondrocytes): 53%; Increase of type II collagen mRNA levels (type II collagen mRNA): no significant effect
CC(C)Cc1ccc(C(C)C(=O)O)cc1 (stereo not drawn) [Ibuprofen]	–	–	–	24	Cell proliferation % in the confront of control (human chondrocytes): 48%
COc1ccc2c(c1)c(CC(=O)O)c(C)n2C(=O)c1ccc(Cl)cc1 [Indomethacin]	–	90	70	–	–
CC(=O)Oc1ccccc1C(=O)Oc1cccc(CO[N+](=O)[O-])c1 [NO-Aspirin, 2-acetyloxybenzoic acid 3-nitrooxymethyl phenyl ester]	600	–	–	–	–
O=C(Cc1ccccc1Nc1c(Cl)cccc1Cl)OCCCCO[N+](=O)[O-] [NO-Diclofenac, 2-[(2,6-dichlorophenyl)amino]benzenacetic acid 4-nitrooxybutyl ester]	550	–	–	–	–
CC(C(=O)OCCCCO[N+](=O)[O-])c1ccc(-c2ccccc2)c(F)c1 (stereo not drawn) [NO-Flurbiprofen, 2-fluoro-alpha-methyl[1,1′-biphenyl]-4-acetic acid 4-nitrooxybutylester]	650	10	150	70	Increase of type II collagen mRNA levels (type II collagen mRNA): more than 100%
CC(=O)Nc1ccc(OC(=O)CCCO[N+](=O)[O-])cc1 [NO-Paracetamol, 4-nitrooxybutanoic acid 4-acetylaminophenylester]	350	–	–	–	AST [6]: 160%; Bilirubin [6]: 136%
COc1ccc2c(c1)c(CC(=O)Oc1cccc(CO[N+](=O)[O-])c1)c(C)n2C(=O)c1ccc(Cl)cc1 [NO-indomethacin, 1-(4-Chlorobenzoyl)-5-methoxy-2-methyl-1H-indole-3-acetic acid 3-(nitrooxymethyl)phenyl ester]	–	20	130	–	–
CC(=O)Nc1ccc(O)cc1 [Paracetamol]	–	–	–	–	ALT [6]: 171%; AST [6]: 330%; Bilirubin [6]: 200%
